Measured values published in EP0308983A2, “NMR imaging with Mn(II) coordination compositions” (priority 1987, dated 1989).

Key:
[1] = Paramagnetic relaxation properties in human plasma at 37°C; format: physicochemical; settings: for T₂ value / T₁ value / R₁ / R₂ / T₁ changed by (repeat measurement) / T₂ changed by (repeat measurement): 37°C; for T₁ value: triplicate; for T₁ changed by (repeat measurement) / T₂ changed by (repeat measurement): repeat measurement 80 minutes later; for T₂ relaxivity in plasma, fold greater than GdDTPA: versus GdDTPA; for T₁ relaxivity in plasma, fold greater than GdDTPA: versus gadolinium diethylenetriaminepentaacetic acid chelate (GdDTPA)
[2] = Paramagnetic relaxation properties in water at 10 MHz (0.15T), RADX spin analyzer; format: physicochemical; settings: 10 MHz (0.15T); for spin-lattice (T₁) relaxation value / spin-spin (T₂) relaxation value: 37°C, triplicate, mean +/- SD; for millimolar relaxivity for T₁ / millimolar relaxivity for T₂: in water; for millimolar relaxivity for T₁: calculated from T₁ and concentration; for millimolar relaxivity for T₂: calculated from T₂ and concentration
Method: The paramagnetic relaxation properties of [manganese(II)·(H₂O)₂·(L-alanine)₂]⁺²(Cl₂)⁻² in water were measured at 10 MHz (0.15T) with a spin analyzer (RADX; Houston, TX) at 37°C. After thermal equilibrium, the spin-lattice (T₁) and spin-spin (T₂) relaxation values were measured in triplicate.
The paramagnetic relaxation of the title compound in water was measured at 10 MHz (0.15T) with a spin analyzer (RADX; Houston, TX). After thermal equilibrium, the spin-lattice (T₁) and spin-spin (T₂) relaxation values were measured.
Relaxivity was measured at 10 MHz (0.15T) as described in Example 10.
The relaxivity of the title compound was performed at 0.15 T (10 MHz) with a RADX Spin Analyzer (Houston, TX) at 37°C.

SMILES | T₂ value ([1]; 93 µM final concentration) [ms] | T₁ value ([1]; 93 µM final concentration) [ms] | R₁ [1] [mM⁻¹ s⁻¹] | R₂ [1] [mM⁻¹ s⁻¹] | T₁ changed by (repeat measurement) [1] | T₂ changed by (repeat measurement) [1] | T₂ relaxivity in plasma, fold greater than GdDTPA [1] [fold] | T₁ relaxivity in plasma, fold greater than GdDTPA [1] [fold] | spin-lattice (T₁) relaxation value ([2]; 0.98 mM solution in water) [ms] | spin-spin (T₂) relaxation value ([2]; 0.98 mM solution in water) [ms] | millimolar relaxivity for T₁ [2] [mM⁻¹ s⁻¹] | millimolar relaxivity for T₂ [2] [mM⁻¹ s⁻¹] | T₂ value ([1]; 92 µM final concentration) [ms] | T₁ value ([1]; 92 µM final concentration) [ms] | spin-lattice (T₁) relaxation value ([2]; 0.97 mM solution in water) [ms] | spin-spin (T₂) relaxation value ([2]; 0.97 mM solution in water) [ms] | also measured
O.O.O=C(O)[C@@H]1CCCN1.O=C(O)[C@@H]1CCCN1.[Cl-].[Cl-].[Mn+2] [Manganese(II)·(H₂O)₂·(L-proline)₂]⁺²(Cl₂)⁻²] | 202 ± 12 | 234 ± 12 | 46.5 | 53.2 | 5% | 12% | 11.1 | 9.7 | 106 ± 4 | 26 ± 2 | 9.63 | 39.3 | – | – | – | – | –
C[NH2+]CC(=O)[O-].C[NH2+]CC(=O)[O-].O.O.[Cl-].[Cl-].[Mn+2] [Manganese(II)·(H₂O)₂·(L-sarcosine)₂]⁺²(Cl₂)⁻²] | 194 ± 16 | 232 ± 2 | 46.4 | 55.4 | 6% | 4% | 11.5 | 9.7 | 111 ± 2 | 26 ± 1 | 9.19 | 39.3 | – | – | – | – | –
N[C@@H](CO)C(=O)O.N[C@@H](CO)C(=O)O.O.O.[Cl-].[Cl-].[Mn+2] [Manganese(II)·(H₂O)₂·(L-serine)₂]⁺²(Cl₂)⁻²] | 189 ± 6 | 238 ± 9 | 45.2 | 56.9 | 3% | 2% | 11.9 | 9.4 | – | – | 9.19 | 37.8 | – | – | – | – | spin-lattice (T₁) relaxation value ([2]; 0.989 mM solution in water): 111 ± 2 ms; spin-spin (T₂) relaxation value ([2]; 0.989 mM solution in water): 27 ± 1 ms
C[C@@H](O)[C@H](N)C(=O)O.C[C@@H](O)[C@H](N)C(=O)O.O.O.[Cl-].[Cl-].[Mn+2] [Manganese(II)·(H₂O)₂·(L-threonine)₂]⁺²(Cl₂)⁻²] | – | – | 45.1 | 55.5 | 1% | 11% | 11.6 | 9.4 | – | – | 9.82 | 36.8 | 196 ± 17 | 241 ± 7 | 105 ± 1 | 28 ± 1 | –
CC(C)[C@H](N)C(=O)O.CC(C)[C@H](N)C(=O)O.O.O.[Cl-].[Cl-].[Mn+2] [Manganese(II)·(H₂O)₂·(L-valine)₂]⁺²(Cl₂)⁻²] | – | – | 43.5 | 56.9 | 4% | 4% | 11.9 | 9.1 | – | – | 9.12 | 39.7 | 191 ± 8 | 250 ± 2 | 113 ± 10 | 26 ± 1 | –
C[C@H](N)C(=O)O.C[C@H](N)C(=O)O.O.O.[Cl-].[Cl-].[Mn+2] [[Manganese(II)·(H₂O)₂·(L-alanine)₂]⁺²(Cl₂)⁻²] | – | – | 44.7 | 56.9 | 3% | 1% | 11.9 | 9.3 | – | – | 9.81 | 39.3 | – | – | – | – | T₂ value ([1]; 94 µM final concentration): 187 ± 3 ms; T₁ value ([1]; 94 µM final concentration): 238 ± 11 ms; spin-lattice (T₁) relaxation value ([2]; 0.99 mM solution in water): 104 ± 9 ms; spin-spin (T₂) relaxation value ([2]; 0.99 mM solution in water): 26 ± 1 ms
N=C(N)NCCC[C@H](N)C(=O)O.N=C(N)NCCC[C@H](N)C(=O)O.O.O.[Cl-].[Cl-].[Mn+2] [[Manganese(II)·(H₂O)₂·(L-arginine)₂]⁺²(Cl₂)⁻²] | – | – | 24.8 | 37.9 | 8% | 22% | 7.9 | 5.2 | – | – | 2.96 | 10.6 | 287 ± 11 | 439 ± 27 | 348 ± 7 | 97 ± 4 | –
NC(=O)CC[C@H](N)C(=O)O.NC(=O)CC[C@H](N)C(=O)O.O.O.[Cl-].[Cl-].[Mn+2] [[Manganese(II)·(H₂O)₂·(L-glutamine)₂]⁺²(Cl₂)⁻²] | – | – | 44.3 | 59.1 | 5% | did not change | 12.3 | 9.2 | – | – | 9.75 | 39.0 | – | – | – | – | T₂ value ([1]; 90 µM final concentration): 188 ± 8 ms; T₁ value ([1]; 90 µM final concentration): 251 ± 18 ms; spin-lattice (T₁) relaxation value ([2]; 0.95 mM solution in water): 108 ± 3 ms; spin-spin (T₂) relaxation value ([2]; 0.95 mM solution in water): 27 ± 0 ms
N[C@@H](Cc1c[nH]cn1)C(=O)O.N[C@@H](Cc1c[nH]cn1)C(=O)O.O.O.[Cl-].[Cl-].[Mn+2] [[Manganese(II)·(H₂O)₂·(L-histidine)₂]⁺²(Cl₂)⁻²] | – | – | 46.3 | 58.4 | 12% | 1% | 12.2 | 9.7 | – | – | 9.20 | 35.6 | 186 ± 3 | 235 ± 2 | 112 ± 4 | 29 ± 1 | –
O.O.O=C(O)[C@@H]1C[C@@H](O)CN1.O=C(O)[C@@H]1C[C@@H](O)CN1.[Cl-].[Cl-].[Mn+2] [[Manganese(II)·(H₂O)₂·(L-hydroxyproline)₂]⁺²(Cl₂)⁻²] | 189 ± 9 | 246 ± 13 | 43.7 | 56.9 | did not change | 1% | 11.9 | 9.1 | 111 ± 3 | 26 ± 1 | 9.19 | 39.3 | – | – | – | – | –
